Results from patent US6107070A, “Human manganese superoxide dismutase proteins” (University of Florida, priority 1998, dated 2000).
Numbering of substitutions follows the chain as printed. Where “and” joins values, the source holds several entries; their conditions need not be identical. Equal values may be shown once.

Assays:
Assay type in all cases: biochemical
[1] = biological target: T1, human manganese superoxide dismutase (hMn SOD) variant Q143N (Gln 143 replaced by Asn), SEQ ID NO:3 (Homo sapiens, UniProt P04179, Q167N); experiment: Decay of superoxide catalyzed by Q143N hMnSOD, stopped-flow spectrophotometry at 5° C.
T1 construct: as a mature protein tagged with an extra Met at the amino terminus; made in house; host or cells: E. coli QC774 (SodA/SodB mutant), pTrc99A
T1 sequence (P04179 25-222 Q167N): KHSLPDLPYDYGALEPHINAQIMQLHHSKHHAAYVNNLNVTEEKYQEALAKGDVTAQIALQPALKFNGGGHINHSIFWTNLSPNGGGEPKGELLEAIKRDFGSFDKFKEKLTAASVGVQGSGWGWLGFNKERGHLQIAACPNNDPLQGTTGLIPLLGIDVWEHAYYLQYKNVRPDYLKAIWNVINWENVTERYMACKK
Description: (§1) Experiments were based on the stabilization of KO2 in aprotic solvent and the subsequent large dilution of this solution by an aqueous solution of enzyme in a stopped-flow apparatus, as described by McClune and Fee (1978). KO2 was dissolved in a mixture of dimethyl sulfoxide and […] (2:1 by volume; Aldrich, spectrophotometric grade) with solubility of KO2 enhanced with 18-crown-6 (Valentine and Curtis, 1975). The stopped-flow spectrophotometer (Kinetic Instruments, Ann Arbor, Mich.) was capable of efficient mixing of this solution with an acqueous solution of enzyme in buffer with a dead time between 1.5 and 2.0 ms. One drive syringe (capacity 50 μl) contained the aprotic solution of O2. This was diluted fifty-fold by the contents of a second syringe (capacity 2.5 ml) which contained enzyme, EDTA, and buffer. The decay of superoxide in initial velocity experiments and progress curves was monitored by its absorption at 250 to 300 nm. Stopped-flow experiments were carried out at […]. Four or more kinetic traces were averaged to reduce noise. Steady-state parameters were obtained by least-squares analysis of such data (Leatherbarrow (1987) "Enzfitter: a nonlinear regression data analysis program for the IBM PC" Elsevier BIOSOFT, Cambridge).

[2] = biological target: T2, human manganese superoxide dismutase (hMn SOD), wild type, SEQ ID NO:2 (Homo sapiens, UniProt P04179); experiment: Disproportionation of superoxide by wild type hMnSOD, Example 3 (Tables 4 and 5), 20° C.
T2 construct: where it is then cleaved off leaving the mature protein
T2 sequence (P04179 25-222): T1 sequence (P04179 25-222 Q167N) with N143Q
Description: as §1
(§2) In the present study, several novel hMnSOD proteins containing substitutions of His 30 (referring to the amino acid sequence of SEQ ID NO:2) were prepared by PCR site directed mutagenesis and purified by column chromatography, as described in the Materials and Methods section above, and as also described by Hsu et al. (1996) J. Biol. Chem. 271: 1768; and Hsieh et al. (1998) Biochemistry 37: 4731. In particular, His 30 was substituted with each of Ala, Asn, Ser and Gln. The resulting novel hMnSOD proteins containing a His 30 substitution were then assayed for enzymatic activity and product inhibition at 20° C. by measuring the absorbance of superoxide at 250 nm using stopped-flow spectrophotometry, as described above in the Materials and Methods section. […]

[3] = biological target: T3, human manganese superoxide dismutase (hMn SOD) variant H30N (His 30 replaced by Asn) (Homo sapiens, UniProt P04179, H54N); experiment: Disproportionation of superoxide by H30N hMnSOD, stopped-flow, 20° C.; settings: pH 9.6, 20° C.
T3 construct: as a mature protein tagged with an extra Met at the amino terminus; made in house
T3 sequence (P04179 25-222 H54N): T1 sequence (P04179 25-222 Q167N) with H30N, N143Q
Description: as §1, §2

[4] = biological target: T4, human manganese superoxide dismutase (hMn SOD) variant H30K (Homo sapiens, UniProt P04179, H54K); experiment: Disproportionation of superoxide by H30K hMnSOD, 20° C.; settings: Table 4; pH 9.4, 20° C.
T4 construct: as a mature protein tagged with an extra Met at the amino terminus; made in house
T4 sequence (P04179 25-222 H54K): T1 sequence (P04179 25-222 Q167N) with H30K, N143Q

[5] = FIG. 2, Michaelis-Menten fit, H2O, 50 mM glycine buffer, 1 mM EDTA, pH 9.4, 5° C.
[6] = Table 1, stopped-flow spectrophotometry, 5° C., pH 9.4
[7] = Table 2, KINSIM fit of FIG. 8 scheme to stopped-flow data, 5° C., pH 9.4
[8] = Table 4, 20° C., pH 9.4 per footnote

Compound: [O]O [superoxide]
- kcat [1, 5]: 160 s⁻¹
- kcat /Km [1, 5]: 850000 M⁻¹ s⁻¹
- maximal value of Kcat /Km ([1]; FIG. 3, fit of pH profile pH 8.5 to 10.5, 5° C.): ~7×10^6 M^-1 s^-1 and 7±3×10^6 M^-1 s^-1
- maximal value of Kcat ([1]; FIG. 4, fit of pH profile, 5° C., in 1/s): 310±30
- kcat [1, 6]: 0.3 ms^-1
- kcat /km [1, 6]: 820000 M⁻¹ s⁻¹
- k1 [1, 7]: 2e+09 M⁻¹ s⁻¹
- k2 [1, 7]: 600 s⁻¹
- k3 [1, 7]: 2e+09 M⁻¹ s⁻¹
- k4 [1, 7]: 600 s⁻¹
- k-1 [1, 7]: 1.5e+06 s⁻¹
- k-4 [1, 7]: 1000 M⁻¹ s⁻¹
- k-5 ([1]; Table 2, KINSIM fit, dead-end complex, 5° C., pH 9.4): 200 s⁻¹
- k5 ([1]; Table 2, KINSIM fit, formation of dead-end complex, 5° C., pH 9.4): 20000 s⁻¹
- kcat /Km ([1]; observed at pH 9.4, 5° C.): 7×10^5 M^1 s^1
- maximal value of Kcat ([1]; pH dependence (FIG. 4)): ~300 s⁻¹
- kcat [2, 8]: 40 ms^.1
- kcat /Km [2, 8]: 800 μM^.1 S^.1
- ko /[E] (rate constant for the zero-order region of catalysis) ([2]; Table 5, pH 9.6, 20° C.): 500 S^.1
- kcat ([3]; Table 4): 2.9 ms^.1
- kcat /Km ([3]; Table 4): 91 μM^.1 S^.1
- ko /[E] (rate constant for the zero-order region of catalysis) ([3]; Table 5): 1,300 S^.1
- kcat [4]: 0.74 ms^.1
- kcat /Km [4]: 0.80 μM^.1 S^.1
